Experimental data reported in US7109193B2, “Tricyclic diazepines tocolytic oxytocin receptor antagonists” (Wyeth, priority 2001, dated 2006).

Target: T1, human oxytocin receptor (Homo sapiens, UniProt P30559)
T1 construct: host or cells: CHO cells (pcDNA3.1 vector)
T1 sequence (P30559 1-389): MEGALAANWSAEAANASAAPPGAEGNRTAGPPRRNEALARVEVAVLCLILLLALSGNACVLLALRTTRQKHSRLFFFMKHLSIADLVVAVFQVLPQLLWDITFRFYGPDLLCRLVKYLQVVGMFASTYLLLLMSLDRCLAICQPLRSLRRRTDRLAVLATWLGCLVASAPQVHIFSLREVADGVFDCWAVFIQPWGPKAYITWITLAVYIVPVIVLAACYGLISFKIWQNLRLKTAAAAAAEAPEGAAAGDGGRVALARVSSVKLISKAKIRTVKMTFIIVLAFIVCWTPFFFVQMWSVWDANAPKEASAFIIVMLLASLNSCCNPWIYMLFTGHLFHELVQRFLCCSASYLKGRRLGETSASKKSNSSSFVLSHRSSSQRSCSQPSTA
Experiment: Oxytocin binding in Chinese Hamster Ovary cell membranes expressing human oxytocin receptors
Details: 100 nM, CHO cell membranes, [3H]oxytocin, values without parentheses, read-out: OT % inhibition @ 100% nM

SMILES | inhibition at 0.1 µM [%]
COc1cc(C(=O)N2Cc3ccc(C(=O)N(C)C4CCN(C)C4)n3Cc3ccccc32)ccc1-c1ccccc1C (stereo not shown) [Example 189, 10-[(2-Methoxy-2′-methyl[1,1′-biphenyl]-4-yl)carbonyl]-N-methyl-N-(1-methyl-3-pyrrolidinyl)-10,11-dihydro-5H-pyrrolo[2,1-c][1,4]benzodiazepine-3-carboxamide] | 99
Cc1ccccc1-c1ccc(C(=O)N2Cc3ccc(C(=O)N(C)C4CCN(C)C4)n3Cc3ccccc32)cc1 (stereo not shown) [Example 188, N-Methyl-10-[(2′-methyl[1,1′-biphenyl]-4-yl)carbonyl]-N-(1-methyl-3-pyrrolidinyl)-10,11-dihydro-5H-pyrrolo[2,1-c][1,4]benzodiazepine-3-carboxamide] | 96
COc1cc(-c2ccccc2C)c(Cl)cc1C(=O)N1Cc2ccc(C(=O)NCCC3CCCN3C)n2Cc2ccccc21 (stereo not shown) [Example 168, 10-[(6-Chloro-3-methoxy-2′-methyl[1,1′-biphenyl]-4-yl)carbonyl]-N-[2-(1-methyl-2-pyrrolidinyl)ethyl]-10,11-dihydro-5H-pyrrolo[2,1-c][1,4]benzodiazepine-3-carboxamide] | 52
COc1ccccc1-c1ccc(C(=O)N2Cc3ccc(C(=O)N4CCN(CCN(C)C)CC4)n3Cc3ccccc32)cc1OC [Example 204, {10-[(2,2′-Dimethoxy[1,1′-biphenyl]-4-yl)carbonyl]-10,11-dihydro-5H-pyrrolo[2,1-c][1,4]benzodiazepin-3-yl}{4-[2-(dimethylamino)ethyl]-1-piperazinyl}methanone] | 72
COc1ccccc1-c1ccc(C(=O)N2Cc3ccc(C(=O)N(C)C4CCN(C)CC4)n3Cc3ccccc32)cc1OC [Example 183, 10-[(2,2′-Dimethoxy[1,1′-biphenyl]-4-yl)carbonyl]-N-methyl-N-(1-methyl-4-piperidinyl)-10,11-dihydro-5H-pyrrolo[2,1-c][1,4]benzodiazepine-3-carboxamide] | 97
COc1ccccc1-c1ccc(C(=O)N2Cc3ccc(C(=O)N4CCN(C(C)C)CC4)n3Cc3ccccc32)cc1C [Example 232, (4-Isopropyl-1-piperazinyl){10-[(2′-methoxy-2-methyl[1,1′-biphenyl]-4-yl)carbonyl]-10,11-dihydro-5H-pyrrolo[2,1-c][1,4]benzodiazepin-3-yl}methanone] | 81
COc1cc(-c2ccccc2C)c(Cl)cc1C(=O)N1Cc2ccc(C(=O)N(C)C3CCN(C)C3)n2Cc2ccccc21 (stereo not shown) [Example 190, 10-[(6-Chloro-3-methoxy-2′-methyl[1,1′-biphenyl]-4-yl)carbonyl]-N-methyl-N-(1-methyl-3-pyrrolidinyl)-10,11-dihydro-5H-pyrrolo[2,1-c][1,4]benzodiazepine-3-carboxamide] | 99
COc1cccc(-c2cc(OC)c(C(=O)N3Cc4ccc(C(=O)N(C)C5CCN(C)C5)n4Cc4ccccc43)cc2Cl)c1 (stereo not shown) [Example 191, 10-[(6-Chloro-3,3′-dimethoxy[1,1′-biphenyl]-4-yl)carbonyl]-N-methyl-N-(1-methyl-3-pyrrolidinyl)-10,11-dihydro-5H-pyrrolo[2,1-c][1,4]benzodiazepine-3-carboxamide] | 100
CN1CCCC1CCNC(=O)c1ccc2n1Cc1ccccc1N(C(=O)c1ccc(-c3cccc4ccccc34)cc1Cl)C2 (stereo not shown) [Example 173, 10-[2-Chloro-4-(1-naphthyl)benzoyl]-N-[2-(1-methyl-2-pyrrolidinyl)ethyl]-10,11-dihydro-5H-pyrrolo[2,1-c][1,4]benzodiazepine-3-carboxamide] | 21
C=CCN1CCN(C(=O)c2ccc3n2Cc2ccccc2N(C(=O)c2ccc(-c4ccccc4C)cc2)C3)CC1 [Example 224, (4-Allyl-1-piperazinyl){10-[(2′-methyl[1,1′-biphenyl]-4-yl)carbonyl]-10,11-dihydro-5H -pyrrolo[2,1-c][1,4]benzodiazepin-3-yl}methanone] | -3
COc1ccccc1-c1ccc(C(=O)N2Cc3ccc(C(=O)N(C)C4CCN(C)C4)n3Cc3ccccc32)cc1 (stereo not shown) [Example 187, 10-[(2′-Methoxy[1,1′-biphenyl]-4-yl)carbonyl]-N-methyl-N-(1-methyl-3-pyrrolidinyl)-10,11-dihydro-5H-pyrrolo[2,1-c][1,4]benzodiazepine-3-carboxamide] | 100

The next lines start with the values.

inhibition at 0.1 µM [%] | SMILES
82 | COc1cc(C(=O)N2Cc3ccc(C(=O)N4CCN(CCN5CCOCC5)CC4)n3Cc3ccccc32)ccc1-c1ccccc1C [Example 210, {10-[(2-Methoxy-2′-methyl[1,1′-biphenyl]-4-yl)carbonyl]-10,11-dihydro-5H-pyrrolo[2,1-c][1,4]benzodiazepin-3-yl}{4-[2-(4-morpholinyl)ethyl]-1-piperazinyl}methanone]
-4 | COc1cc(-c2ccccc2C(F)(F)F)c(Cl)cc1C(=O)N1Cc2ccc(C(=O)O)n2Cc2ccccc21 [Example 15, 10-{[6-Chloro-3-methoxy-2′-trifluoromethyl-[1,1′-biphenyl]-4-yl]carbonyl}-10,11-dihydro-5H-pyrrolo[2,1-c][1,4]benzodiazepine-3-carboxylic acid]
47 | COc1cccc(-c2ccc(C(=O)N3Cc4ccc(C(=O)NCCC5CCCN5C)n4Cc4ccccc43)cc2OC)c1 (stereo not shown) [Example 172, 10-[(2,3′-Dimethoxy[1,1′-biphenyl]-4-yl)carbonyl]-N-[2-(1-methyl-2-pyrrolidinyl)ethyl]-10,11-dihydro-5H-pyrrolo[2,1-c][1,4]benzodiazepine-3-carboxamide]
63 | C=CCN1CCN(C(=O)c2ccc3n2Cc2ccccc2N(C(=O)c2ccc(-c4cccc5ccccc45)c(OC)c2)C3)CC1 [Example 231, (4-Allyl-1-piperazinyl){10-[3-methoxy-4-(1-naphthyl)benzoyl]-10,11-dihydro-5H -pyrrolo[2,1-c][1,4]benzodiazepin-3-yl}methanone]
70 | COc1cc(C(=O)N2Cc3ccc(C(=O)N(C)C4CCN(C)CC4)n3Cc3ccccc32)ccc1-c1cccc2ccccc12 [Example 182, 10-[3-Methoxy-4-(1-naphthyl)benzoyl]-N-methyl-N-(1-methyl-4-piperidinyl)-10,11-dihydro-5H-pyrrolo[2,1-c][1,4]benzodiazepine-3-carboxamide]
71 | C=CCN1CCN(C(=O)c2ccc3n2Cc2ccccc2N(C(=O)c2cc(Cl)c(-c4cccc(OC)c4)cc2OC)C3)CC1 [Example 226, (4-Allyl-1-piperazinyl){10-[(6-chloro-3,3′-dimethoxy[1,1′-biphenyl]-4-yl)carbonyl]-10,11-dihydro-5H-pyrrolo[2,1-c][1,4]benzodiazepin-3-yl}methanone]
95 | COc1ccccc1-c1ccc(C(=O)N2Cc3ccc(C(=O)N(C)C4CCN(C)C4)n3Cc3ccccc32)cc1C (stereo not shown) [Example 185, 10-[(2′-Methoxy-2-methyl[1,1′-biphenyl]-4-yl)carbonyl]-N-methyl-N-(1-methyl-3-pyrrolidinyl)-10,11-dihydro-5H-pyrrolo[2,1-c][1,4]benzodiazepine-3-carboxamide]
38 | COc1cc(C(=O)N2Cc3ccc(C(=O)NCCN4CCCCC4)n3Cc3ccccc32)ccc1-c1cccc2ccccc12 [Example 157, 10-[3-Methoxy-4-(1-naphthyl)benzoyl]-N-[2-(1-piperidinyl)ethyl]-10,11-dihydro-5H-pyrrolo[2,1-c][1,4]benzodiazepine-3-carboxamide]
